This assay in a line: Dentin loss under extreme erosion conditions, composition versus its three ingredients separately (Example 8). As to conditions: 10 cycles: 5 min pre-treatment, 1% citric acid pH 2.3 for 3 min. Details: species or system cow. The method, then:
The protective capacity of a mouthwash formulated with olive oil, trimethylglycine and xylitol in dentin subjected to extreme erosion conditions was analysed, compared to that of aqueous solutions of the three ingredients separately in the same concentrations used in the mouthwash tested. For the evaluation of effects a control was included consisting of distilled water.
Incisive teeth extracted from a cow's jaw were used, which were immersed in a 0.5% thymol solution at room temperature. The teeth were sectioned at the cementum-enamel junction by means of a water-cooled diamond scalpel (Exakt, Norderstedt, Germany), and the crowns and roots were embedded in acrylic resin cylinders (Paladur, Heraeus Kulzer, Wehrheim, Germany). Radicular cementum was completely eliminated. […]
Dentin loss was quantified performing profile or profilometric measurements (Mahr Perthometer, Göttingen, Germany). […] After the experiment the adhesive tapes were removed and the samples were analysed again. The average depth of the eroded surfaces was thus calculated with respect to basic surface profiles by means of specific software (Mahr Perthometer Concept 7.0, Mahr, Göttingen, Germany).
Dentin loss was calculated (mean±standard deviation) for each group and statistically analysed by Student's t test followed by Bonferroni's t test for multiple comparisons (Statistica 6.0, Statsoft, Tulsa, USA).

Turning to `OC[C@@H](O)[C@H](O)[C@@H](O)CO` [1% xylitol solution, xylitol], the “protective effect on dentin against erosion” value is on record as “did not demonstrate any protective effect”.

`C[N+](C)(C)CC(=O)[O-]` [2% trimethylglycine solution, trimethylglycine]: the “protective effect on dentin against erosion” value is reported as “did not demonstrate any protective effect”.
